Values after ≈ are worked out from the molar mass of the structure shown. Active and inactive are the calls of the source. The rule behind the calls is not given here.
How the values were obtained:
A549 = test: Cytotoxicity against human A549 cells assessed as cell growth inhibition at 15 ug/ml after 72 hrs by MTT assay; type: functional, cell-based
MCF7 = test: Cytotoxicity against human MCF7 cells assessed as cell growth inhibition at 15 ug/ml after 72 hrs by MTT assay; type: functional, cell-based
HT-29 = test: Cytotoxicity against human HT-29 cells assessed as cell growth inhibition at 15 ug/ml after 72 hrs by MTT assay; type: functional, cell-based
MIA PaCa-2 = test: Cytotoxicity against human MIAPaCa2 cells assessed as cell growth inhibition at 15 ug/ml after 72 hrs by MTT assay; type: functional, cell-based
HepG2 = test: Cytotoxicity against human HepG2 cells assessed as cell growth inhibition at 15 ug/ml after 72 hrs by MTT assay; type: functional, cell-based
Staphylococcus aureus = test: Antibacterial activity against methicillin-resistant Staphylococcus aureus after 20 hrs by spectrophotometry; type: functional

Q: `CC1=CCC[C@]2(C)CC[C@@H]3[C@@H]([C@@H](C(C)C)CC[C@]3(C)O)[C@H]12` was tested. Which “growth inhibition (GI)” value (A549) did it give?
A: Its value is “inactive”.

Q: What about the “growth inhibition (GI)” value (MCF7) of the same compound?
A: Its value is “inactive”.

Q: And the “growth inhibition (GI)” value (HT-29)?
A: The value was “inactive”.

Q: What about the “growth inhibition (GI)” value (MIA PaCa-2) of the same compound?
A: Its value is “inactive”.

Q: What about the “growth inhibition (GI)” value (HepG2) of the same compound?
A: Its value is “inactive”.

Q: For `CC1=CCC[C@]2(C)CC[C@@]3(O)[C@@H]([C@@H](C(C)C)CC[C@@H]3C)[C@H]12`, which “growth inhibition (GI)” value (A549) is on record?
A: The value was “inactive”.

Q: And the “growth inhibition (GI)” value (MCF7)?
A: Its value is “inactive”.

Q: What about the “growth inhibition (GI)” value (HT-29) of the same compound?
A: The value was “inactive”.

Q: What about the “growth inhibition (GI)” value (MIA PaCa-2) of the same compound?
A: Its value is “inactive”.

Q: What about the “growth inhibition (GI)” value (HepG2) of the same compound?
A: The value was “inactive”.

Q: For `C=C1CCC[C@]2(C)CC[C@@]3(O)[C@@H]([C@@H](C(C)C)CC[C@@H]3C)[C@H]12`, which MIC50 (Staphylococcus aureus) is on record?
A: Its MIC50 is 48 µg/mL (≈ 165 µM).

Q: And the “growth inhibition (GI)” value (A549)?
A: Its value is “inactive”.

Q: And the “growth inhibition (GI)” value (MCF7)?
A: The value was “inactive”.

Q: And the “growth inhibition (GI)” value (HT-29)?
A: The value was “inactive”.

Q: What about the “growth inhibition (GI)” value (MIA PaCa-2) of the same compound?
A: Its value is “inactive”.

Q: And the “growth inhibition (GI)” value (HepG2)?
A: The value was “inactive”.
